Measurements taken from BindingDB's records for doi:10.1021/jm5003167 (Bristol-Myers Squibb, 2014).
pIC50: −log10 of the molar value.

How the values were obtained:
[1] = Antagonist activity at CCR1 receptor in human THP1 cells assessed as inhibition of MIP-1alpha induced chemotaxis after 60 mins
[2] = Antagonist activity at CCR1 receptor in human THP1 cells assessed as inhibition of HCC4-induced chemotaxis after 60 mins
[3] = Antagonist activity at CCR1 receptor in human THP1 cells assessed as inhibition of LKN1-induced chemotaxis after 60 mins
[4] = Antagonist activity at CCR1 receptor in human THP1 cells assessed as inhibition of MPIF1-induced chemotaxis after 60 mins
[5] = Antagonist activity at CCR1 receptor in human THP1 cells assessed as inhibition of MCP3-induced chemotaxis after 60 mins
[6] = Antagonist activity at CCR1 receptor in human THP1 cells assessed as inhibition of MIP-1alpha-induced chemotaxis after 60 mins
[7] = Antagonist activity at CCR1 receptor in human THP1 cells assessed as inhibition of RANTES-induced chemotaxis after 60 mins
[8] = Antagonist activity at CCR1 receptor in human THP1 cells assessed as inhibition of HCC1-induced chemotaxis after 60 mins

Structure (SMILES)	pIC50 [1]	other results
CC(C)[C@@H](NC(=O)N[C@H]1CC[C@H](O)C1)C(=O)N1CC[C@](O)(c2ccc(Cl)cc2)C(C)(C)C1	8.00	–
CC[C@@H](C)NC(=O)N[C@@H](C(=O)N1CC[C@](O)(c2ccc(Cl)cc2)C(C)(C)C1)C(C)C [US8633226, 897]	8.22	–
CC(C)[C@@H](NC(=O)NC[C@H](C)O)C(=O)N1CC[C@](O)(c2ccc(Cl)cc2)C(C)(C)C1	8.15	–
CC(C)[C@@H](NC(=O)N[C@@H]1CC[C@H](O)C1)C(=O)N1CC[C@](O)(c2ccc(Cl)cc2)C(C)(C)C1	8.40	–
CC(C)[C@@H](NC(=O)N[C@H]1CC[C@@H](O)C1)C(=O)N1CC[C@](O)(c2ccc(Cl)cc2)C(C)(C)C1	8.22	–
CC(C)[C@@H](NC(=O)CCC(C)(C)O)C(=O)N1CC[C@](O)(c2ccc(Cl)cc2)C(C)(C)C1	7.66	–
CC(C)[C@@H](NC(=O)N[C@@H]1CC[C@@H](O)C1)C(=O)N1CC[C@](O)(c2ccc(Cl)cc2)C(C)(C)C1	7.72	–
CC(C)[C@@H](NC(=O)NC1CCCC1)C(=O)N1CC[C@](O)(c2ccc(Cl)cc2)C(C)(C)C1	8.52	–
CC(C)[C@@H](NC(=O)NCC(C)(C)O)C(=O)N1CC[C@](O)(c2ccc(Cl)cc2)C(C)(C)C1	8.22	pIC50 [2]: 8.49; pIC50 [3]: 7.80; pIC50 [4]: 7.85; pIC50 [5]: 8.03; pIC50 [6]: 8.26; pIC50 [7]: 8.48; pIC50 [8]: 8.12
CC(C)[C@@H](NC(=O)NC[C@@H](C)O)C(=O)N1CC[C@](O)(c2ccc(Cl)cc2)C(C)(C)C1	8.22	–
